Measured values: publication PMC10800023 (Human Molecular Genetics, 2023)

Legend:
in vivo [1] = conditions: C57BL/10, mouse, oral; for Kp: brain/plasma; for AUC / Cmax: plasma
in vivo [2] = conditions: DBA/2 J, mouse, plasma, po
Procedure: The brain-to-plasma ratio was then calculated using the area under the curve (AUC) for brain exposure and the AUC for plasma exposure.

Kp (in vivo [1]; 5 mg/kg): 0.5 | Kp (in vivo [1]; 30 mg/kg): 0.46 | AUC (in vivo [1]; 5 mg/kg): 2850 ng·h/mL | Cmax (in vivo [1]; 5 mg/kg): 818 ng/mL | AUC (in vivo [1]; 30 mg/kg): 33900 ng·h/mL | Cmax (in vivo [1]; 30 mg/kg): 8790 ng/mL | AUC (in vivo [2]; 15 mg/kg): 9350 ng·h/mL | Cmax (in vivo [2]; 15 mg/kg): 1980 ng/mL | AUC (in vivo [2]; 30 mg/kg): 26600 ng·h/mL | Cmax (in vivo [2]; 30 mg/kg): 2700 ng/mL | AUC (in vivo [2]; 45 mg/kg): 34100 ng·h/mL | Cmax (in vivo [2]; 45 mg/kg): 3470 ng/mL
Structure (SMILES): C[C@@H]1C[C@H]2[C@@H]3CCC4=CC(=O)C=C[C@]4(C)C3=CC[C@]2(C)[C@@]1(O)C(=O)CO [Vamorolone]
